Measurements: PubChem BioAssay AID248 (DTP/NCI, 2004)
Where “and” joins values, the source holds several entries; their conditions need not be identical. Equal values may be shown once. Toxic doses and inconclusive results are not listed. Rule as the data show it: active = T/C of 150% or more; inactive = T/C below 125%.

Test system: L1210 leukemia ip in BDF1 mice, survival T/C
Experiment: NCI In Vivo Anticancer Drug Screen. Data for tumor model L1210 Leukemia (intraperitoneal) in B6D2F1 (BDF1) mice
Settings: endpoint: mean survival time, higher = longer survival
In short: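 In this screen, tumor-bearing mice given compound are compared to those given vehicle, and their survival values are reported as a treated-to-control quotient.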

[1] = dose: 100.0 mg/kg/injection, schedule: Q04DX003 (ip), vehicle: saline with Tween-80
[2] = dose: 200.0 mg/kg/injection, schedule: Q04DX003 (ip), vehicle: saline with Tween-80
[3] = dose: 25.0 mg/kg/injection, schedule: Q01DX009 (ip), vehicle: Klucel (hydroxypropylcellulose) (HPC)
[4] = dose: 100.0 mg/kg/injection, schedule: Q01DX009 (ip), vehicle: Klucel (hydroxypropylcellulose) (HPC)
[5] = dose: 100.0 mg/kg/injection, schedule: Q04DX003 (ip), vehicle: Klucel (hydroxypropylcellulose) (HPC)
[6] = dose: 200.0 mg/kg/injection, schedule: Q04DX003 (ip), vehicle: Klucel (hydroxypropylcellulose) (HPC)
[7] = dose: 400.0 mg/kg/injection, schedule: Q04DX003 (ip), vehicle: Klucel (hydroxypropylcellulose) (HPC)
[8] = dose: 50.0 mg/kg/injection, schedule: Q01DX009 (ip), vehicle: saline with Tween-80
[9] = dose: 200.0 mg/kg/injection, schedule: Q01DX009 (ip), vehicle: Klucel (hydroxypropylcellulose) (HPC)
[10] = dose: 400.0 mg/kg/injection, schedule: Q01DX009 (ip), vehicle: Klucel (hydroxypropylcellulose) (HPC)
[11] = dose: 100.0 mg/kg/injection, schedule: Q01DX001 (ip), vehicle: Klucel (hydroxypropylcellulose) (HPC)
[12] = dose: 200.0 mg/kg/injection, schedule: Q01DX001 (ip), vehicle: Klucel (hydroxypropylcellulose) (HPC)
[13] = dose: 400.0 mg/kg/injection, schedule: Q01DX001 (ip), vehicle: Klucel (hydroxypropylcellulose) (HPC)
[14] = dose: 100.0 mg/kg/injection, schedule: Q01DX009 (ip), vehicle: saline
[15] = dose: 200.0 mg/kg/injection, schedule: Q01DX009 (ip), vehicle: saline
[16] = dose: 50.0 mg/kg/injection, schedule: Q01DX009 (ip), vehicle: Klucel (hydroxypropylcellulose) (HPC)
[17] = dose: 100.0 mg/kg/injection, schedule: Q01DX001 (ip), vehicle: saline
[18] = dose: 200.0 mg/kg/injection, schedule: Q01DX001 (ip), vehicle: saline
[19] = dose: 400.0 mg/kg/injection, schedule: Q01DX001 (ip), vehicle: saline
[20] = dose: 100.0 mg/kg/injection, schedule: Q01DX009 (ip), vehicle: saline with Tween-80
[21] = dose: 200.0 mg/kg/injection, schedule: Q01DX009 (ip), vehicle: saline with Tween-80

Measured: T/C

Oc1ccc(-c2ccccc2)cc1Br
inactive: [1] 101 % of control | [2] 111 % of control

CCCCNC(=O)Nc1cc(Cl)ccc1C
inactive: dose: 3.12 mg/kg/injection, schedule: Q01DX009 (ip), vehicle: Klucel (hydroxypropylcellulose) (HPC) 97 % of control | dose: 6.25 mg/kg/injection, schedule: Q01DX009 (ip), vehicle: Klucel (hydroxypropylcellulose) (HPC) 92 % of control | dose: 12.5 mg/kg/injection, schedule: Q01DX009 (ip), vehicle: Klucel (hydroxypropylcellulose) (HPC) 101 % of control and 90 % of control | [3] 89 % of control | [4] 94 % of control and 86 % of control | [5] 95 % of control | [6] 90 % of control | [7] 90 % of control

CCCC(=O)c1cc(O)c(O)cc1O
inactive: [8] 96 % of control | [1] 95 % of control | [2] 105 % of control

CC12CCC(=O)C=C1CC(Sc1ccc(N(CCCl)CCCl)cc1)C1C2CCC2(C)C(O)CCC12 (stereo unspecified)
inactive: dose: 100.0 mg/kg/injection, schedule: Q01DX001 (sc), vehicle: steriod suspending solution 108 % of control | dose: 200.0 mg/kg/injection, schedule: Q01DX001 (sc), vehicle: steriod suspending solution 108 % of control | dose: 400.0 mg/kg/injection, schedule: Q01DX001 (sc), vehicle: steriod suspending solution 100 % of control

CCN(N=Nc1ccc(C)cc1)N=Nc1ccc(C)cc1
inactive: [4] 93 % of control | [5] 100 % of control | [9] 88 % of control | [6] 100 % of control | [10] 88 % of control | [7] 93 % of control

O=C(OCCOC(=O)c1cccc([N+](=O)[O-])c1)c1cccc([N+](=O)[O-])c1
inactive: dose: 100.0 mg/kg/injection, schedule: Q01DX001 (ip), vehicle: other 95 % of control | dose: 200.0 mg/kg/injection, schedule: Q01DX001 (ip), vehicle: other 96 % of control | dose: 400.0 mg/kg/injection, schedule: Q01DX001 (ip), vehicle: other 96 % of control

O=C(NC(CS(=O)(=O)O)C(=O)O)OCc1ccccc1 (stereo unspecified)
inactive: [11] 93 % of control | [5] 93 % of control | [12] 97 % of control | [6] 95 % of control | [13] 91 % of control

O=C(NCCCCc1ccccc1)c1ccc([N+](=O)[O-])s1
inactive: dose: 50.0 mg/kg/injection, schedule: Q01DX005 (ip), vehicle: water 94 % of control | dose: 100.0 mg/kg/injection, schedule: Q01DX005 (ip), vehicle: water 87 % of control | dose: 200.0 mg/kg/injection, schedule: Q01DX005 (ip), vehicle: water 94 % of control | dose: 400.0 mg/kg/injection, schedule: Q01DX005 (ip), vehicle: water 94 % of control

Cc1ccc(C2CCCCC2OS(=O)(=O)c2ccc(C)cc2)cc1 (stereo unspecified)
inactive: dose: 100.0 mg/kg/injection, schedule: Q01DX001 (ip), vehicle: steriod suspending solution 102 % of control | dose: 200.0 mg/kg/injection, schedule: Q01DX001 (ip), vehicle: steriod suspending solution 95 % of control | dose: 400.0 mg/kg/injection, schedule: Q01DX001 (ip), vehicle: steriod suspending solution 109 % of control

Cc1c(N)c(C)c(-c2c(O)c(Br)c(C)c(O)c2Br)c(C)c1Br
inactive: [11] 93 % of control | [5] 102 % of control | [12] 98 % of control | [6] 96 % of control | [13] 87 % of control | [7] 94 % of control

COC(=O)C(=O)NCc1cnccn1
inactive: [14] 105 % of control | dose: 100.0 mg/kg/injection, schedule: Q04DX003 (ip), vehicle: saline 93 % of control | [15] 110 % of control | dose: 200.0 mg/kg/injection, schedule: Q04DX003 (ip), vehicle: saline 107 % of control | dose: 400.0 mg/kg/injection, schedule: Q01DX009 (ip), vehicle: saline 111 % of control | dose: 400.0 mg/kg/injection, schedule: Q04DX003 (ip), vehicle: saline 100 % of control

N#Cc1ccc(Cl)cc1
inactive: dose: 100.0 mg/kg/injection, schedule: Q04DX002 (ip), vehicle: Klucel (hydroxypropylcellulose) (HPC) 100 % of control | dose: 200.0 mg/kg/injection, schedule: Q04DX002 (ip), vehicle: Klucel (hydroxypropylcellulose) (HPC) 102 % of control

CCc1ccccc1NC(=O)Nc1ccc(OC)cc1
inactive: [3] 90 % of control | [16] 95 % of control | [4] 93 % of control | [5] 94 % of control | [9] 86 % of control | [6] 91 % of control | [7] 96 % of control

Clc1ccc(/C=N/c2ccccn2)cc1
inactive: [17] 102 % of control | [18] 102 % of control | [19] 100 % of control

Cc1nc(N2CCCCC2)[nH]c(=O)c1CN(C)N=O
inactive: [8] 94 % of control | [20] 94 % of control | [21] 102 % of control

CCCCCCCCCCCCCCC(=O)[O][Hg][c]1ccccc1
inactive: dose: 75.0 mg/kg/injection, schedule: Q01DX001 (ip), vehicle: steriod suspending solution 100 % of control

O=C1OCCN1/N=C\c1ccccc1
inactive: dose: 100.0 mg/kg/injection, schedule: Q01DX009 (ip), vehicle: other 116 % of control | dose: 200.0 mg/kg/injection, schedule: Q01DX009 (ip), vehicle: other 98 % of control | dose: 400.0 mg/kg/injection, schedule: Q01DX009 (ip), vehicle: other 97 % of control

O=C(O)C1CCCN(C(=O)OCc2ccccc2)C1 (stereo unspecified)
inactive: [16] 97 % of control | [4] 100 % of control | [5] 90 % of control | [9] 97 % of control | [6] 90 % of control | [7] 97 % of control

O=[N+]([O-])c1cc(C(F)(F)F)ccc1Cl
inactive: [14] 102 % of control | [15] 97 % of control

CCC(=O)OC1CC2C3CCC4=CC(=O)CCC4(C)C3CCC2(C)C1OC(=O)CC (stereo unspecified)
inactive: [4] 98 % of control | [5] 95 % of control | [9] 98 % of control | [6] 95 % of control | [10] 97 % of control | [7] 101 % of control

[Cl][Hg][Cl].c1cnccn1
inactive: dose: 1.0 mg/kg/injection, schedule: Q01DX009 (ip), vehicle: saline with Tween-80 105 % of control | dose: 2.0 mg/kg/injection, schedule: Q01DX009 (ip), vehicle: saline with Tween-80 93 % of control | dose: 4.0 mg/kg/injection, schedule: Q01DX009 (ip), vehicle: saline with Tween-80 105 % of control | dose: 8.0 mg/kg/injection, schedule: Q04DX003 (ip), vehicle: saline with Tween-80 88 % of control

O=S(=O)(Nc1ccc(NS(=O)(=O)c2ccccc2)c2ccccc12)c1ccccc1
inactive: [20] 87 % of control | [21] 92 % of control | dose: 400.0 mg/kg/injection, schedule: Q01DX009 (ip), vehicle: saline with Tween-80 92 % of control

CC(CCC(CCC(C)CC(C)(C)C)CCC(C)CC(C)(C)C)CC(C)(C)C (stereo unspecified)
inactive: dose: 75.0 mg/kg/injection, schedule: Q01DX001 (ip), vehicle: saline with Tween-80 104 % of control | dose: 300.0 mg/kg/injection, schedule: Q01DX001 (ip), vehicle: saline with Tween-80 97 % of control

COc1cc(/C=N/O)cc(I)c1O
inactive: [4] 104 % of control | [9] 101 % of control | [10] 101 % of control

O=[N+]([O-])c1ccc(Cl)cc1/C=N/NC(=S)Nc1cccc2cccnc12
inactive: [17] 100 % of control | [18] 103 % of control | [19] 100 % of control

ClCCN(CCN(CCCl)c1ccccc1)c1ccccc1
inactive: [4] 113 % of control | [9] 108 % of control | [10] 115 % of control

O=C(O)CCCCOc1ccccc1
inactive: dose: 75.0 mg/kg/injection, schedule: Q04DX003 (ip), vehicle: saline 97 % of control | dose: 150.0 mg/kg/injection, schedule: Q04DX003 (ip), vehicle: saline 103 % of control

COc1cc(Cl)ccc1NC(=O)Oc1ccc2c(C)cc(=O)oc2c1
inactive: [4] 100 % of control

IC1CCC2OC1CCC2I (stereo unspecified)
inactive: dose: 100.0 mg/kg/injection, schedule: Q04DX002 (ip), vehicle: saline with Tween-80 94 % of control | dose: 200.0 mg/kg/injection, schedule: Q04DX002 (ip), vehicle: saline with Tween-80 94 % of control | dose: 400.0 mg/kg/injection, schedule: Q04DX002 (ip), vehicle: saline with Tween-80 109 % of control
